The values that follow come from ChEMBL document CHEMBL3627690, “Scaffold-Hopping and Structure-Based Discovery of Potent, Selective, And Brain Penetrant N-(1H-Pyrazol-3-yl)pyridin-2-amine Inhibitors of Dual Leucine Zipper Kinase (DLK, MAP3K12)” (J Med Chem, 2015).

Data set [1] has as its system human MDR1. As to the kind of experiment: Efflux ratio of permeability across basolateral to apical over apical to basolateral side in MDCK cells transfected with human MDR1 at 5 uM by LC-MS/MS analysis. As to conditions: dog.
For data set [2], the system named is human MDR1. The data set is described as follows: Permeability across apical to basolateral side in MDCK cells transfected with human MDR1 at 5 uM by LC-MS/MS analysis. The conditions noted are these: dog.
The target in data set [3] is T1, Mitogen-activated protein kinase kinase kinase 12 (Homo sapiens, UniProt Q12852).
T1 sequence (Q12852 whole entry): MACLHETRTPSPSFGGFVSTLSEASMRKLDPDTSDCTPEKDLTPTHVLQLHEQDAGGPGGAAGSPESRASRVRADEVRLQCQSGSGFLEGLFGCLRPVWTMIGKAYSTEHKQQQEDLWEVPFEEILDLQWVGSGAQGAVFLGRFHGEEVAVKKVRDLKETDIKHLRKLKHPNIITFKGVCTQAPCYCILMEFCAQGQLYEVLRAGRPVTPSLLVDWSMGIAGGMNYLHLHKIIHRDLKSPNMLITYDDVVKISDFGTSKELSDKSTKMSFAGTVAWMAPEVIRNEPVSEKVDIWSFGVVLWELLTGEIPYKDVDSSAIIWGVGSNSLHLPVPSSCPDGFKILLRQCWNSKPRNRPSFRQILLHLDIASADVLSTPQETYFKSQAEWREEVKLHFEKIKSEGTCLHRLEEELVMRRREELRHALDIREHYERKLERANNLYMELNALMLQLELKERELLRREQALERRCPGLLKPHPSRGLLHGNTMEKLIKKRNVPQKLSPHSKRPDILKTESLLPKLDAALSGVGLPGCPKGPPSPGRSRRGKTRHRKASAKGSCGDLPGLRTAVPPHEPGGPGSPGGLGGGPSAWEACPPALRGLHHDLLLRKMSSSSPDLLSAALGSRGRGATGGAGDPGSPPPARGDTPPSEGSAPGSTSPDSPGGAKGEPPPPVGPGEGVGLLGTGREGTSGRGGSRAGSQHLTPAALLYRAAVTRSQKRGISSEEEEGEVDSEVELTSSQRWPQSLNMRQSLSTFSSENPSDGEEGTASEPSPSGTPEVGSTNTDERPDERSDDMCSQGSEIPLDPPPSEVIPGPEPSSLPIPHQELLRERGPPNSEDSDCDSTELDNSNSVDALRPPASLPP
As to the kind of experiment: Inhibition of N-terminally GST- tagged human DLK catalytic domain (1 to 520 amino acids) using N-terminally HIS-tagged MKK4 K131M as substrate incubated for 60 mins by TR-FRET assay. (In general: In TR-FRET formats the signal depends on donor and acceptor labels being close together.)

In data set [4] the target is T1, Mitogen-activated protein kinase kinase kinase 12. As to the kind of experiment: Inhibition of Dox inducible human DLK transfected in HEK293 cells assessed as reduction in JNK phosphorylation incubated for 5.5 hrs measured by Hoechst 33342 staining based imaging analysis. The format is cell-based.

Consider `CC(C)n1nc(Nc2cc(C(F)(F)F)ccn2)cc1C1CCNCC1`, for which the efflux ratio (commonly the permeability from basolateral to apical divided by that in the opposite direction, in the common usage) at 5 µM in the data set with human MDR1 [1] worked out at 36. The Papp A→B – broadly, how fast a substance crosses the layer from the apical side – at 5 µM in the data set on human MDR1 [2] is 0.5 ×10⁻⁶ cm/s. Further, in data set [3], the Ki (commonly the equilibrium dissociation constant of an inhibitor or competing ligand from its target) came out at 145 nM.
`N#Cc1ccnc(Nc2nc(C3CC3)c(C3CCN(C4COC4)CC3)s2)c1`: the IC50 (usually the concentration needed to halve the response being measured) in data set [4] is 8600 nM. Further, affinity in data set [3] was put at a Ki of 569 nM.
Molecule `CC(C)n1nc(Nc2cc(C#N)ccn2)cc1C1CCNCC1` showed a Ki in data set [3] of 160 nM.
In the case of `N#Cc1ccnc(Nc2cc(C3CCN(C4COC4)CC3)n(C3CCOC3)n2)c1` (racemic), the efflux ratio at 5 µM with human MDR1 [1] was 7.6. The molecule also yielded an apical-to-basolateral permeability (Papp A→B) at 5 µM with human MDR1 [2] of 1.9 ×10⁻⁶ cm/s. In data set [3], this molecule displayed an inhibition constant Ki of 378 nM.
Turning to `N#Cc1ccnc(Nc2cc(C3CCOC3)n(C3CCCC3)n2)c1` (racemic), the efflux ratio at 5 µM in the data set with human MDR1 [1] worked out at 1. Further, in data set [4], the concentration for half-maximal inhibition (IC50) came out at 698 nM. Besides, the Papp A→B at 5 µM in the data set with human MDR1 [2] was 2.7 ×10⁻⁶ cm/s. Also, the inhibition constant (Ki) in data set [3] is 54 nM.
Take `CC(C)n1nc(Nc2ccc(C(F)(F)F)cn2)cc1C1CCNCC1`: the inhibition constant Ki in data set [3] is above 1600 nM.
For `N#Cc1ccnc(Nc2cc(C3CCN(C4COC4)C3)n(C3CCCC3)n2)c1` (racemic), the efflux ratio at 5 µM in the data set with human MDR1 [1] stood at 3.7. In data set [4], the IC50 was found to be 632 nM. For the same molecule, the Papp A→B at 5 µM with human MDR1 [2] amounted to 5.6 ×10⁻⁶ cm/s. The molecule also gave an inhibition constant (Ki) in data set [3] of 25 nM.
Consider `N#Cc1ccnc(Nc2cc(C3CCN(C4COC4)CC3)n(CC3CCC3)n2)c1`, for which the IC50 in data set [4] was found to be 1400 nM. This molecule displayed an apparent permeability from apical to basolateral (Papp A→B) at 5 µM in the data set on human MDR1 [2] of 1.8 ×10⁻⁶ cm/s. For the same molecule, the inhibitory constant (Ki) in data set [3] amounted to 133 nM.
`N#Cc1ccnc(Nc2cn(C3CCN(C4COC4)CC3)c(C3CCCC3)n2)c1` displayed a Ki in data set [3] above 1600 nM.
Regarding `N#Cc1ccnc(Nc2cc(C3CN(C4COC4)C3)n(C3CCCC3)n2)c1`, in the data set on human MDR1 [1], the efflux ratio at 5 µM is 3.3. Also, the half-inhibitory concentration (IC50) in data set [4] stood at 459 nM. The molecule also gave a Papp A→B at 5 µM in the data set on human MDR1 [2] of 4.9 ×10⁻⁶ cm/s. The Ki in data set [3] came out at 48 nM.
In turn, `CC(C)n1nc(Nc2ccc(C#N)cn2)cc1C1CCNCC1` returned an inhibitory constant (Ki) in data set [3] above 1600 nM.
In the case of `N#Cc1ccnc(Nc2cc(C3CCN(C4COC4)CC3)n(C3CCOCC3)n2)c1`, in the data set with human MDR1 [1], the efflux ratio at 5 µM came to 15. This molecule also gave a Papp A→B at 5 µM in the data set with human MDR1 [2] of 1.7 ×10⁻⁶ cm/s. In data set [3], this molecule gave an inhibitory constant (Ki) of 593 nM.
For the molecule `N#Cc1ccnc(Nc2cc(C3CCN(C4COC4)CC3)n(C3CCC(F)(F)C3)n2)c1` (racemic), the efflux ratio at 5 µM in the data set with human MDR1 [1] stood at 5.8. Also, the IC50 in data set [4] is 721 nM. Besides, in the data set with human MDR1 [2], the apparent permeability from apical to basolateral (Papp A→B) at 5 µM amounted to 4.2 ×10⁻⁶ cm/s. The molecule further displayed a Ki in data set [3] of 48 nM.
